Values joined by “and” are separate entries in the source; they are usually repeats but may differ in a detail not shown here. Equal values may be shown once.
Test system: 699152-130-R-J1-PDC complex spheroid growth
Assay: Anticancer human tumor 699152-130-R-J1-PDC patient-derived pancreatic carcinoma cell line growth inhibition [AhR]
Settings: for viability, T/C: stronger effect = lower value; active = viability on the fitted dose curve at most 10% of control; inactive = the rest
Summary of the method: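 Complex tumor spheroids co-cultured with HUVEC and human MSC stroma; AhR antagonists tested in combination with standard-of-care and investigational agents. Top concentration at or near clinical Cmax (else 10 microM), half-log dilutions; growth expressed as percent test/control.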

[1] = curve of first compound, second compound 0.1 µM
[2] = curve of first compound, second compound 0.316 µM
[3] = curve of first compound, second compound 1 µM
[4] = curve of first compound, second compound 3.16 µM
[5] = curve of first compound, second compound 10 µM
[6] = second compound 0.1 µM, first compound 0.0316 µM
[7] = second compound 0.1 µM, first compound 0.1 µM
[8] = second compound 0.1 µM, first compound 0.316 µM
[9] = second compound 0.1 µM, first compound 1 µM
[10] = second compound 0.1 µM, first compound 3.16 µM
[11] = second compound 0.1 µM, first compound 10 µM
[12] = second compound 0.316 µM, first compound 0.0316 µM
[13] = second compound 0.316 µM, first compound 0.1 µM
[14] = second compound 0.316 µM, first compound 0.316 µM
[15] = second compound 0.316 µM, first compound 1 µM
[16] = second compound 0.316 µM, first compound 3.16 µM
[17] = second compound 0.316 µM, first compound 10 µM
[18] = second compound 1 µM, first compound 0.0316 µM
[19] = second compound 1 µM, first compound 0.1 µM
[20] = second compound 1 µM, first compound 0.316 µM
[21] = second compound 1 µM, first compound 1 µM
[22] = second compound 1 µM, first compound 3.16 µM
[23] = second compound 1 µM, first compound 10 µM
[24] = second compound 3.16 µM, first compound 0.0316 µM
[25] = second compound 3.16 µM, first compound 0.1 µM
[26] = second compound 3.16 µM, first compound 0.316 µM
[27] = second compound 3.16 µM, first compound 1 µM
[28] = second compound 3.16 µM, first compound 3.16 µM
[29] = second compound 3.16 µM, first compound 10 µM
[30] = second compound 10 µM, first compound 0.0316 µM
[31] = second compound 10 µM, first compound 0.1 µM
[32] = second compound 10 µM, first compound 0.316 µM
[33] = second compound 10 µM, first compound 1 µM
[34] = second compound 10 µM, first compound 3.16 µM
[35] = second compound 10 µM, first compound 10 µM
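Note: compound exposure lasted 7 days after spheroids had grown for 3 days.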

O=C(C=Cn1cnc(-c2cc(C(F)(F)F)cc(C(F)(F)F)c2)n1)NNc1cnccn1 + CC(CO)NC(=O)c1cc(-c2ccc(Cl)cc2)nn(-c2cnn(C)c2)c1=O
inactive: viability, T/C (second compound 0.1 µM, first compound 0.00949 µM) 87.8% | viability, T/C (second compound 0.1 µM, first compound 0.03 µM) 98.4% | viability, T/C (second compound 0.1 µM, first compound 0.0949 µM) 82.1% | viability, T/C (second compound 0.1 µM, first compound 0.3 µM) 74.3% | viability, T/C (second compound 0.1 µM, first compound 0.949 µM) 82.5% | viability, T/C (second compound 0.1 µM, first compound 3 µM) 83.2% | viability, T/C (second compound 0.316 µM, first compound 0.00949 µM) 90.2% | viability, T/C (second compound 0.316 µM, first compound 0.03 µM) 82.5% | viability, T/C (second compound 0.316 µM, first compound 0.0949 µM) 76.7% | viability, T/C (second compound 0.316 µM, first compound 0.3 µM) 87.3% | viability, T/C (second compound 0.316 µM, first compound 0.949 µM) 87.5% | viability, T/C (second compound 0.316 µM, first compound 3 µM) 70.5% | viability, T/C (second compound 1 µM, first compound 0.00949 µM) 88.8% | viability, T/C (second compound 1 µM, first compound 0.03 µM) 83.9% | viability, T/C (second compound 1 µM, first compound 0.0949 µM) 75.5% | viability, T/C (second compound 1 µM, first compound 0.3 µM) 74% | viability, T/C (second compound 1 µM, first compound 0.949 µM) 82.6% | viability, T/C (second compound 1 µM, first compound 3 µM) 79% | viability, T/C (second compound 3.16 µM, first compound 0.00949 µM) 92.1% | viability, T/C (second compound 3.16 µM, first compound 0.03 µM) 88% | viability, T/C (second compound 3.16 µM, first compound 0.0949 µM) 87% | viability, T/C (second compound 3.16 µM, first compound 0.3 µM) 71.8% | viability, T/C (second compound 3.16 µM, first compound 0.949 µM) 71.2% | viability, T/C (second compound 3.16 µM, first compound 3 µM) 75.4% | viability, T/C (second compound 10 µM, first compound 0.00949 µM) 99% | viability, T/C (second compound 10 µM, first compound 0.03 µM) 82.1% | viability, T/C (second compound 10 µM, first compound 0.0949 µM) 68.7% | viability, T/C (second compound 10 µM, first compound 0.3 µM) 72.4% | viability, T/C (second compound 10 µM, first compound 0.949 µM) 82.3% | viability, T/C (second compound 10 µM, first compound 3 µM) 73.4%
> 3000 nM: IC50 [1] | IC50 [2] | IC50 [3] | IC50 [4] | IC50 [5]

CCc1c2c(nc3ccc(O)cc13)-c1cc3c(c(=O)n1C2)COC(=O)[C@]3(O)CC
inactive: viability, T/C (compound 0.000949 µM) 85.1% and 90.1% and 88.5% | viability, T/C (compound 0.003 µM) 86.8% and 87.7% and 95.1% | viability, T/C (compound 0.00949 µM) 66.3% and 61.5% and 59.9% | viability, T/C (compound 0.03 µM) 55.8% and 44.3% and 57.9% | viability, T/C (compound 0.0949 µM) 49% and 43.6% and 52% | viability, T/C (compound 0.3 µM) 33.9% and 33.8% and 38%
60.4 nM and 20 nM and 27.7 nM: IC50 (curve of compound)

Nc1ccn(C2OC(CO)C(O)C2(F)F)c(=O)n1 (configuration not stated) + Cc1ccccc1N=Nc1ccc(NC(=O)c2ccnn2C)c(C)c1
458 nM: IC50 [4]
156 nM: IC50 [1]
1740 nM: IC50 [5]
inactive: viability, T/C [6] 52.3% | viability, T/C [7] 55.2% | viability, T/C [8] 43.9% | viability, T/C [9] 45.8% | viability, T/C [10] 39.6% | viability, T/C [11] 33.9% | viability, T/C [12] 57.9% | viability, T/C [13] 58.4% | viability, T/C [14] 52.1% | viability, T/C [15] 46.8% | viability, T/C [16] 40.1% | viability, T/C [17] 41.6% | viability, T/C [18] 68.2% | viability, T/C [19] 58.7% | viability, T/C [20] 50.2% | viability, T/C [21] 46.4% | viability, T/C [22] 44.2% | viability, T/C [23] 43.1% | viability, T/C [24] 58.6% | viability, T/C [25] 57.1% | viability, T/C [26] 48.4% | viability, T/C [27] 48.3% | viability, T/C [28] 44.5% | viability, T/C [29] 39.5% | viability, T/C [30] 74.9% | viability, T/C [31] 61.9% | viability, T/C [32] 56.2% | viability, T/C [33] 51.8% | viability, T/C [34] 48.5% | viability, T/C [35] 47.2%
470 nM: IC50 [2]
390 nM: IC50 [3]

Nc1ccccc1NC(=O)c1ccc(CNC(=O)OCc2cccnc2)cc1 + Cc1ccccc1N=Nc1ccc(NC(=O)c2ccnn2C)c(C)c1
6790 nM: IC50 [2]
8030 nM: IC50 [4]
7200 nM: IC50 [3]
> 10000 nM: IC50 [5]
inactive: viability, T/C [6] 85.7% | viability, T/C [7] 97.6% | viability, T/C [8] 102% | viability, T/C [9] 111% | viability, T/C [10] 77.8% | viability, T/C [11] 41.6% | viability, T/C [12] 90.6% | viability, T/C [13] 93.8% | viability, T/C [14] 89.5% | viability, T/C [15] 90.7% | viability, T/C [16] 67.5% | viability, T/C [17] 41.1% | viability, T/C [18] 97.1% | viability, T/C [19] 95.3% | viability, T/C [20] 107% | viability, T/C [21] 97.4% | viability, T/C [22] 76.6% | viability, T/C [23] 39.4% | viability, T/C [24] 93.2% | viability, T/C [25] 93.3% | viability, T/C [26] 104% | viability, T/C [27] 112% | viability, T/C [28] 73.2% | viability, T/C [29] 44.5% | viability, T/C [30] 115% | viability, T/C [31] 116% | viability, T/C [32] 109% | viability, T/C [33] 102% | viability, T/C [34] 91.8% | viability, T/C [35] 58.2%
7660 nM: IC50 [1]
